# Results reported in ChEMBL document CHEMBL4715834, “Design, synthesis and bio-evaluation of novel 2-aryl-4-(3,4,5-trimethoxy-benzoyl)-5-substituted-1,2,3-triazoles as the tubulin polymerization inhibitors” (Eur J Med Chem, 2020).
# The source made the active and inactive calls. No cut-off for these calls is given here.
# Columns and labels:
# HeLa = experiment: Antiproliferative activity against human HeLa cells assessed as inhibition of cell growth measured after 72 hrs by MTT assay; assay type: functional, cell-based
# SGC-7901 [1] = experiment: Cell cycle arrest in human SGC-7901 cells assessed as increase in G2/M cell population at 0.023 uM by propidium iodide staining based flow cytometry; assay type: functional; conditions: time 12-72 hrs, TDE = time-dependent effect
# SGC-7901 [2] = experiment: Cell cycle arrest in human SGC-7901 cells assessed as increase in sub-G1 cell population at 0.023 uM after 72 hrs by propidium iodide staining based flow cytometry; assay type: functional
# [3] = Solubility of compound in water at pH 7.4 by UV-HPLC method; assay type: physicochemical
# SGC-7901 [4] = experiment: Cell cycle arrest in human SGC-7901 cells assessed as decrease in G1 cell population at 0.023 uM by propidium iodide staining based flow cytometry; assay type: functional; conditions: time 12-72 hrs, TDE = time-dependent effect
# A549 = experiment: Antiproliferative activity against human A549 cells assessed as inhibition of cell growth measured after 72 hrs by MTT assay; assay type: functional, cell-based; conditions: A549, 72 h
# SGC-7901 [5] = experiment: Antiproliferative activity against human SGC-7901 cells assessed as inhibition of cell growth measured after 72 hrs by MTT assay; assay type: functional, cell-based; conditions: SGC-7901, 72 h
# SGC-7901 [6] = experiment: Induction of microtubule disruption in human SGC-7901 cells assessed as appearance of disorganised microtubule at 0.084 uM measured after 24 hrs by DAPI staining based immunofluorescence assay; assay type: cell-based
# SGC-7901 [7] = experiment: Cell cycle arrest in human SGC-7901 cells assessed as accumulation at G2/M cell population at 0.084 uM measured after 12 hrs by propidium iodide staining based flow cytometry (reference value: 14.5%); assay type: functional
# [8] = (§1) Inhibition of porcine tubulin polymerization measured for 60 mins by fluorescence assay; design: species or system Sus scrofa
# Sus scrofa = organism: Sus scrofa; experiment: as §1
# SGC-7901 [9] = experiment: Induction of microtubule disruption in human SGC-7901 cells assessed as change in shape of nucleus at 0.084 uM measured after 24 hrs by DAPI staining based immunofluorescence assay; assay type: cell-based
# SGC-7901 [10] = experiment: Cell cycle arrest in human SGC-7901 cells assessed as decrease in G1 cell population at 0.084 uM by propidium iodide staining based flow cytometry; assay type: functional; conditions: time 12-72 hrs, TDE = time-dependent effect
# SGC-7901 [11] = experiment: Cell cycle arrest in human SGC-7901 cells assessed as increase in sub-G1 cell population at 0.084 uM after 72 hrs by propidium iodide staining based flow cytometry; assay type: functional
# SGC-7901 [12] = experiment: Cell cycle arrest in human SGC-7901 cells assessed as increase in G2/M cell population at 0.084 uM by propidium iodide staining based flow cytometry; assay type: functional; conditions: time 12-72 hrs, TDE = time-dependent effect
# SGC-7901 [13] = experiment: Induction of microtubule disruption in human SGC-7901 cells assessed as shrinkage of microtubule at 0.084 uM measured after 24 hrs by DAPI staining based immunofluorescence assay; assay type: cell-based
Compound,IC50 (HeLa),IC50 (A549),IC50 (SGC-7901 [5]),further results
COc1cc(C(=O)c2nn(-c3ccccc3)nc2N2CCCCC2)cc(OC)c1OC,3.62 µM,6.45 µM,3.72 µM,–
COc1cc(C(=O)c2nn(-c3ccc(Br)cc3)nc2N2CCN(C(C)=O)CC2)cc(OC)c1OC,> 30 µM,9.06 µM,0.861 µM,–
COc1ccc(-n2nc(C(=O)c3cc(OC)c(OC)c(OC)c3)c(N3CCN(C(C)=O)CC3)n2)cc1N,1.36 µM,0.648 µM,0.55 µM,–
COc1cc(C(=O)c2nn(-c3cc(C)ccc3C)nc2N2CCN(C(C)=O)CC2)cc(OC)c1OC,> 30 µM,> 30 µM,> 30 µM,–
COc1cc(C(=O)c2cnn(-c3ccccc3)n2)cc(OC)c1OC,11.4 µM,7.1 µM,0.87 µM,solubility [3]: < 0.5 µg/mL
COc1cc(C(=O)c2nn(-c3ccccc3C)nc2N2CCN(C(C)=O)CC2)cc(OC)c1OC,2.69 µM,8.35 µM,2.38 µM,–
COc1cc(C(=O)c2nn(-c3ccccc3)nc2N2CCN(C(=O)OC(C)(C)C)CC2)cc(OC)c1OC,> 30 µM,> 30 µM,11.3 µM,–
COc1ccc(-n2nc(C(=O)c3cc(OC)c(OC)c(OC)c3)c(N3CCN(C(C)=O)CC3)n2)cc1[N+](=O)[O-],> 30 µM,> 30 µM,> 30 µM,–
COc1cc(C(=O)c2nn(-c3cccc(C)c3)nc2N2CCN(C(C)=O)CC2)cc(OC)c1OC,> 30 µM,> 30 µM,> 30 µM,–
COc1cc(C(=O)c2nn(-c3ccc(C)c(C)c3)nc2N2CCN(C(C)=O)CC2)cc(OC)c1OC,3.92 µM,2.61 µM,4.83 µM,–
COc1cc(C(=O)c2nn(-c3cccc(F)c3)nc2N2CCN(C(C)=O)CC2)cc(OC)c1OC,6.2 µM,> 30 µM,1.69 µM,–
COc1cc(C(=O)c2nn(-c3ccccc3)nc2N2CCN(C(C)C)CC2)cc(OC)c1OC,6.42 µM,7.3 µM,2.68 µM,–
COc1cc(C(=O)c2nn(-c3ccc(F)cc3)nc2N2CCN(C(C)=O)CC2)cc(OC)c1OC,3.48 µM,> 30 µM,0.344 µM,–
COc1ccc(/C=C\c2cc(OC)c(OC)c(OC)c2)cc1O [COMBRETASTATIN A4],–,–,–,solubility [3]: 0.1 µg/mL

# More lines, main results first:
IC50 (HeLa),IC50 (A549),IC50 (SGC-7901 [5]),Compound,further results
0.037 µM,0.034 µM,–,COc1cc(C(=O)c2csc(-c3ccccc3)n2)cc(OC)c1OC,Activity (SGC-7901 [1]): Tde; Activity (SGC-7901 [2]): Active; solubility [3]: < 0.5 µg/mL; Activity (SGC-7901 [4]): Tde
0.342 µM,4.31 µM,1.24 µM,COc1cc(C(=O)c2nn(-c3ccccc3)nc2N2CCNCC2)cc(OC)c1OC,solubility [3]: 2.2 µg/mL
0.208 µM,1.1 µM,1.15 µM,COc1ccc(-n2nc(C(=O)c3cc(OC)c(OC)c(OC)c3)c(N3CCN(C(C)=O)CC3)n2)cc1,–
0.298 µM,0.764 µM,0.426 µM,COc1cc(C(=O)c2nn(-c3ccc(C)cc3)nc2N2CCN(C(C)=O)CC2)cc(OC)c1OC,–
0.212 µM,0.684 µM,0.417 µM,COc1cc(C(=O)c2nn(-c3ccc([N+](=O)[O-])cc3)nc2N2CCN(C(C)=O)CC2)cc(OC)c1OC,–
0.135 µM,0.622 µM,6.58 µM,COc1cc(C(=O)c2nn(-c3ccccc3)nc2N2CCN(C)CC2)cc(OC)c1OC,–
1.08 µM,0.628 µM,0.406 µM,COc1cc(C(=O)c2nn(-c3ccc(Cl)cc3)nc2N2CCN(C(C)=O)CC2)cc(OC)c1OC,–
0.221 µM,0.133 µM,0.084 µM,COc1cc(C(=O)c2nn(-c3ccccc3)nc2N2CCN(C(C)=O)CC2)cc(OC)c1OC,Activity (SGC-7901 [6]): Active; Activity (SGC-7901 [7]): 53.9%; IC50 [8]: 28.3 µM; inhibition (Sus scrofa): Dose-dependent effect; Activity (SGC-7901 [9]): Active; Activity (SGC-7901 [10]): Tde; solubility [3]: 2.7 µg/mL; Activity (SGC-7901 [11]): Active; Activity (SGC-7901 [12]): Tde; Activity (SGC-7901 [13]): Active
0.513 µM,4.65 µM,0.171 µM,COc1cc(C(=O)c2nn(-c3ccccc3F)nc2N2CCN(C(C)=O)CC2)cc(OC)c1OC,–
0.891 µM,0.488 µM,5.86 µM,COc1cc(C(=O)c2nn(-c3ccccc3)nc2N2CCOCC2)cc(OC)c1OC,–
